The assay concerns ethanol-induced gastric ulceration in male Wister rats. The experiment in a line: Antiulcerogenic activity, ethanol-induced gastric ulcer model. The class given is in vivo. The note with it: 100 mg/kg orally; for Antiulcerogenic activity (in words): isolated compounds compared with reference drugs at 100 mg/kg; for No. of ulcers: three doses before ethanol 50% 10 ml/kg, mean ± SD, n = 6; for Curative ratio: versus ethanol control. The method, then:
The antiulcerogenic activity of the total alcohol extract of Euphorbia cuneata was studied using ethanol-induced ulcer model at doses of 125, 250 and 500 mg/kg. […] The antioxidant properties to the total alcohol extract and the isolated compounds were evaluated using DPPH radical scavenging activity test. The liver and kidney functions were studied.
Male Wister rats (180-200 g) were used. […] Animals were divided into groups each of 6 rats and starved for 48 h before use to ensure an empty stomach. To avoid dehydration during the period of fasting, rats were supplied with sucrose (BDH) 8% (w/v) solution in NaCl (BDH) 0.2% (w/v), which was removed one hour before experimentation. The 1st group was kept as a normal control, while the 2nd one was kept as a positive control. Groups 3rd to 5th received the alcohol extract of E. cuneata in doses of 125, 250 and 500 mg/kg orally. […] The last three groups of rats were given ranitidine, apigenin and naringin orally as reference drugs in a dose of 100 mg/kg.
Two doses were given in the first day at 08:00 and 16:00 clock; a third dose was given on the second day 1.5 h before induction of gastric ulceration. All rats except the normal control were given ethanol (Merck) 50% (v/v) (in distilled water) in a dose of 10 ml/kg orally to induce gastric ulceration. Normal control rats received equivolumes of distilled water only at the same time intervals. One hour after ethanol administration, all rats were killed by an overdose of chloroform and the stomachs were rapidly removed, opened along their greater curvature and gently rinsed under running tap water. Lesions in the glandular part of the stomach were measured under an illuminated magnifying microscope (10×). Long lesions were counted and their lengths were measured. Petechial lesions were counted, and then each five petechial lesions were taken as 1 mm of ulcer. To calculate the ulcer index (mm), the sum of the total length of long ulcers and petechial lesions in each group of rats was divided by its number. The curative ratio was determined according to the formula: […]
The results obtained were statistically analyzed using “t” test.

In the case of `COc1ccc(-c2cc(=O)c3c(O)cc(O[C@@H]4O[C@H](CO[C@@H]5O[C@@H](C)[C@H](O)[C@@H](O)[C@H]5O)[C@@H](O)[C@H](O)[C@H]4O)cc3o2)cc1O` [4′-O-methoxy-luteolin-7-O-rhamnoglucoside], the “Antiulcerogenic activity (in words)” value is recorded as “most effective”, the No. of ulcers is listed as 2.003 ± 0.072 and the Curative ratio was found to be 88.23.
Regarding `O=c1cc(-c2ccc(O)cc2)oc2cc(O)cc(O)c12` [Apigenin], the No. of ulcers came to 4.122 ± 0.432 and the Curative ratio is reported as 75.78.
In the same order, the values of `C[C@@H]1O[C@@H](O[C@H]2[C@H](Oc3cc(O)c4c(c3)O[C@H](c3ccc(O)cc3)CC4=O)O[C@H](CO)[C@@H](O)[C@@H]2O)[C@H](O)[C@H](O)[C@H]1O` [Naringin] are 3.167 ± 0.872 and 81.40.
In the same order, the values of `CNC(=C[N+](=O)[O-])NCCSCc1ccc(CN(C)C)o1` [Rantidine] are 3.200 ± 0.800 and 81.20.
With Aromadendrin (2,3-dihydro-kaempferol), the “Antiulcerogenic activity (in words)” value is “as effective as naringin, apigenin and ranitidine”; the No. of ulcers came out at 3.558 ± 0.640; the Curative ratio was 79.10.
